Test results: patent EP4707280A1, “1,4-CINEOLE DERIVATIVE AND INTERMEDIATE THEREOF, HERBICIDE CONTAINING SAID DERIVATIVE AS ACTIVE INGREDIENT, METHOD FOR USING HERBICIDE, AND METHOD FOR PREPARING AGROCHEMICAL COMPOSITION” (HOKKO CHEMICAL INDUSTRY CO., LTD., priority 2023, dated 2024)

Legend:
Format in all cases: in vivo
Amaranthus viridis [1] = assay: Test Example 7: herbicidal effect test by soil application in upland field (low dose); conditions: 7.5 g per 10 ares, sprayed one day after sowing, upland soil, 14 days after application, read-out: weed inhibition rate
Lindernia pyxidaria [2] = assay: Test Example 2: herbicidal effect test by application during growth period of paddy rice; conditions: 120 g per 10 ares, applied seven days after sowing, flooded pots, 14 days after application, read-out: weed inhibition rate
In short: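 Greenhouse pots of flooded paddy soil, seeded shallowly with 30 seeds per weed, are treated on day 7 by dropper with diluted emulsifiable concentrate equal to 120 g a.i./10 a. Duplicate pots are scored for inhibition rate 14 days post-application.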

Chenopodium album [3] = assay: Test Example 8: herbicidal effect test by stem and leaf treatment in upland field (low dose); conditions: 7.5 g per 10 ares, sprayed seven days after sowing, upland soil, 14 days after application, read-out: weed inhibition rate
In short: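 Duplicate alluvial-loam pots (36 cm^2), seeded in the top 1 cm and grown seven days, were sprayed with diluted emulsifiable concentrate at 7.5 g a.i. per 10 ares (100 L per 10 ares). Percent inhibition was assessed at 14 days post-treatment.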

Lindernia pyxidaria [4] = assay: Test Example 1: herbicidal effect test by soil application in paddy rice; conditions: 336 h, 120 g active ingredient per 10 ares, applied immediately after sowing, flooded pots, 14 days after application, read-out: weed inhibition rate
In short: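 Inhibition rate (%) read 14 days after treatment, duplicate pots. Water-diluted emulsifiable concentrate was applied by dropper at 120 g active ingredient/10 ares right after sowing. Seeds (30 per species, 0–1 cm deep) went into puddled paddy soil kept flooded at about 3 cm in a greenhouse.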

Lindernia pyxidaria [5] = assay: Test Example 5: herbicidal effect test by soil application in paddy rice (low dose); conditions: 336 h, 7.5 g per 10 ares, applied immediately after sowing, flooded pots, 14 days after application, read-out: weed inhibition rate
In short: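 7.5 g a.i./10 a applied by dropper into ~3 cm floodwater immediately post-sowing (seeds 0–1 cm, 30 per species; puddled fertilized paddy soil, glasshouse). Duplicates; day-14 inhibition %.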

Chenopodium album [6] = assay: Test Example 4: herbicidal effect test by stem and leaf treatment in upland field; conditions: 120 g per 10 ares, sprayed seven days after sowing, upland soil, 14 days after application, read-out: weed inhibition rate
Amaranthus viridis [7] = assay: as above; conditions: 120 g per 10 ares, sprayed seven days after sowing, upland soil, 14 days after application, read-out: weed inhibition rate
In short: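 Read-out: weed inhibition rate (%), calculated 14 days post-application, each concentration group in duplicate. Treatment was a spray of diluted emulsifiable concentrate (100 liters per 10 ares; 120 g a.i. per 10 ares) onto pots sown 7 days earlier in alluvial loam.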

[8] = tested on: Echinochloa crus-galli var. formosensis at the three-leaf stage; assay: Comparative Example: herbicidal effect test by application during growth period of paddy rice (three-leaf stage, Table 7); conditions: 504 h, active ingredient 7.5 g per 10 ares, emulsifiable concentrate applied by dropper to flooded pots, 21 days after chemical application, triplicate, read-out: Weed inhibition rate (%)
Description: As an example, the herbicidal effect on Echinochloa crus-galli var. formosensis at the three-leaf stage was confirmed by the following method, and the results are specifically shown in Table 7 as a comparative example.
Wagner pots with an area of […] were filled with paddy soil, followed by addition of water and incorporation of chemical fertilizer (N:P:K = 16:16:16), after which puddling was performed. After that, 30 seeds of Echinochloa crus-galli var. formosensis were sown at a depth of 0 cm to 1 cm. Immediately after sowing, the pots were flooded and a water depth of approximately 3 cm was maintained. Subsequent management was conducted in a glass greenhouse. When Echinochloa crus-galli var. formosensis reached the three-leaf stage, an emulsifiable concentrate prepared according to Formulation Example 5 using the compound shown below was diluted with water, and a specified amount of the diluted solution was applied by dropper. The amount of the active ingredient to be applied was equivalent to 7.5 g per 10 ares. The test was conducted in triplicate for each chemical concentration group, and the weed inhibition rate (%) was determined 21 days after chemical application using the following formula (Math. 1).

CC(C)[C@]12C[C@@H](OCc3ccccc3F)[C@](C)(CC1OCC1CC1)O2 (mixture of isomers) [1-921, (1S,2R,4R,SR)-5-(cyclopropylmethoxy)-2-[(2-fluorophenyl)methoxy]-1-methyl-4-isopropyl-7-oxabicyclo[2.2.1]heptane]
≥ 80%: inhibition at 75 g/ha (Amaranthus viridis [1]) | inhibition at 1200 g/ha (Lindernia pyxidaria [2]) | inhibition at 75 g/ha (Chenopodium album [3]) | pest or weed control at 1200 g/ha (Lindernia pyxidaria [4]) | inhibition at 75 g/ha (Lindernia pyxidaria [5]) | inhibition at 1200 g/ha (Chenopodium album [6]) | inhibition at 1200 g/ha (Amaranthus viridis [7])

CC(C)[C@]12C=C[C@](C)(O1)C(OCc1ccccc1F)C2 (mixture of isomers) [3-5, (1R,4S,SR)-5-[(2-fluorophenyl)methoxy]-4-methyl-1-isopropyl-7-oxabicyclo[2.2.1]hept-2-ene]
82%: inhibition at 75 g/ha [8]
≥ 80%: inhibition at 1200 g/ha (Lindernia pyxidaria [2]) | inhibition at 75 g/ha (Chenopodium album [3]) | pest or weed control at 1200 g/ha (Lindernia pyxidaria [4]) | inhibition at 1200 g/ha (Chenopodium album [6]) | inhibition at 1200 g/ha (Amaranthus viridis [7])

Cc1ccccc1CO[C@@H]1C[C@]2(C(C)C)O[C@@]1(C)C[C@@H]2F [1-2, (1R,2S,4S,5R)-2-fluoro-1-isopropyl-4-methyl-5-((2-methylbenzyl)oxy)-7-oxabicyclo[2.2.1]heptane]
94%: inhibition at 75 g/ha [8]
≥ 80%: inhibition at 1200 g/ha (Lindernia pyxidaria [2]) | inhibition at 75 g/ha (Chenopodium album [3]) | inhibition at 1200 g/ha (Chenopodium album [6]) | inhibition at 1200 g/ha (Amaranthus viridis [7])

CC(C)[C@]12C[C@@H](OCc3ccccc3F)[C@](C)(CC1C)O2 (stereo partly drawn) [1-92, (1S,2R,4R)-2-((2-fluorobenzyl)oxy)-4-isopropyl-1,5-dimethyl-7-oxabicyclo[2.2.1]heptane]
100%: inhibition at 75 g/ha [8]
≥ 80%: inhibition at 75 g/ha (Chenopodium album [3]) | inhibition at 1200 g/ha (Chenopodium album [6]) | inhibition at 1200 g/ha (Amaranthus viridis [7])

C=CCO[C@@H]1C[C@]2(C)O[C@@]1(C(C)C)C[C@H]2OCc1ccccc1F [1-930, (1S,2R,4R,5R)-2-[(2-fluorophenyl)methoxy]-1-methyl-4-isopropyl-5-prop-2-enoxy-7-oxabicyclo[2.2.1]heptane]
≥ 80%: inhibition at 75 g/ha (Amaranthus viridis [1]) | inhibition at 1200 g/ha (Lindernia pyxidaria [2]) | inhibition at 75 g/ha (Chenopodium album [3]) | pest or weed control at 1200 g/ha (Lindernia pyxidaria [4]) | inhibition at 75 g/ha (Lindernia pyxidaria [5]) | inhibition at 1200 g/ha (Chenopodium album [6]) | inhibition at 1200 g/ha (Amaranthus viridis [7])

C#CCO[C@@H]1C[C@]2(C)O[C@@]1(C(C)C)C[C@H]2OCc1ccccc1F [1-931, (1S,2R,4R,5R)-2-[(2-fluorophenyl)methoxy]-1-methyl-4-isopropyl-5-prop-2-ynoxy-7-oxabicyclo[2.2.1]heptane]
≥ 80%: inhibition at 75 g/ha (Amaranthus viridis [1]) | inhibition at 1200 g/ha (Lindernia pyxidaria [2]) | pest or weed control at 1200 g/ha (Lindernia pyxidaria [4]) | inhibition at 75 g/ha (Lindernia pyxidaria [5]) | inhibition at 1200 g/ha (Chenopodium album [6]) | inhibition at 1200 g/ha (Amaranthus viridis [7])

C=C1C[C@]2(C)O[C@@]1(C(C)C)C[C@H]2OCc1ccccc1C [2-72, (1R,4S,5R)-1-isopropyl-4-methyl-5-((2-methylbenzyl)oxy)-2-methylene-7-oxabicyclo[2.2.1]heptane]
≥ 80%: inhibition at 75 g/ha (Amaranthus viridis [1]) | inhibition at 1200 g/ha (Lindernia pyxidaria [2]) | inhibition at 75 g/ha (Chenopodium album [3]) | pest or weed control at 1200 g/ha (Lindernia pyxidaria [4]) | inhibition at 1200 g/ha (Chenopodium album [6])

C=C1C[C@]2(C)O[C@@]1(C(C)C)C[C@H]2OCc1ccccc1F [2-88, (1R,4S,5R)-5-((2-fluorobenzyl)oxy)-1-isopropyl-4-methyl-2-methylene-7-oxabicyclo[2.2.1]heptane]
≥ 80%: inhibition at 75 g/ha (Amaranthus viridis [1]) | inhibition at 1200 g/ha (Lindernia pyxidaria [2]) | inhibition at 75 g/ha (Chenopodium album [3]) | pest or weed control at 1200 g/ha (Lindernia pyxidaria [4]) | inhibition at 1200 g/ha (Chenopodium album [6])
80%: inhibition at 75 g/ha [8]
